US8192962B2, “Processes for detecting toxic substances” (Daikin Industries, Ltd., priority 2001, dated 2012)

Tested on: Mitochondria-located protein genes
Assay: DNA chip mRNA expression in yeast, mitochondria-located protein genes (Table 2)
Format: cell-based, Saccharomyces cerevisiae S288C
Details: cells incubated two hours with the chemical substance
Outline: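 Cells were grown at 25° C. in YPD, treated at logarithmic phase for 2 h with a chemical at a concentration inhibiting growth but not causing death, and compared with untreated cultures. Labeled cDNA was hybridized to a DNA chip carrying all yeast genes, and the expression ratio was taken from scanner fluorescence.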

Measured: The level of expressed mRNA in the presence of chemical substance/The level of expressed mRNA in the absence of chemical substance

Cl[C@H]1[C@H](Cl)[C@@H](Cl)[C@@H](Cl)[C@H](Cl)[C@H]1Cl [(7), γ-hexachlorocyclohexane]
1.7: yeast gene YDR231C | yeast gene YGR076C | yeast gene YJL096W | yeast gene YMR083W | yeast gene YOL096C | yeast gene YOR020C
1.8: yeast gene YCR083W | yeast gene YLR259C | yeast gene YML129C | yeast gene YPR047W
0.6: yeast gene YDR178W | yeast gene YEL039C | yeast gene YGL187C | yeast gene YJL102W | yeast gene YKL148C | yeast gene YLR304C | yeast gene YNL104C | yeast gene YNL256W
8.0: yeast gene YBL038W
0.3: yeast gene YLL041C
2.2: yeast gene YIL155C
2.3: yeast gene YMR035W
2.5: yeast gene YOR037W
1.9: yeast gene YMR023C
1.5: yeast gene YBR044C | yeast gene YBR221C | yeast gene YKL016C | yeast gene YKL170W | yeast gene YOR187W | yeast gene YPR067W | yeast gene YPR134W
6.9: yeast gene YKL142W
1.3: yeast gene YDR079W | yeast gene YGR062C | yeast gene YOR130C | yeast gene YPL262W
1.6: yeast gene YER178W | yeast gene YJL180C | yeast gene YOR100C
0.7: yeast gene YEL024W | yeast gene YHR008C | yeast gene YJR077C | yeast gene YPL215W
2.1: yeast gene YGR028W | yeast gene YKL194C
1.2: yeast gene YBR185C | yeast gene YBR282W | yeast gene YCR046C | yeast gene YDR347W | yeast gene YML054C | yeast gene YMR089C | yeast gene YMR267W | yeast gene YNL055C | yeast gene YOR150W | yeast gene YPL134C | yeast gene YPL135W | yeast gene YPR037C
1.4: yeast gene YBR251W | yeast gene YCL057W | yeast gene YFL016C | yeast gene YKL003C | yeast gene YNL071W | yeast gene YOR316C | yeast gene YPR024W
3.9: yeast gene YDR258C | yeast gene YGR244C
0.9: yeast gene YBL030C | yeast gene YBL099W | yeast gene YGR082W | yeast gene YLR348C
3.7: yeast gene YGR008C
0.5: yeast gene YDR529C | yeast gene YJL133W | yeast gene YKL141W | yeast gene YKR066C | yeast gene YOR176W
0.8: yeast gene YDL067C | yeast gene YJL166W | yeast gene YML120C | yeast gene YMR152W | yeast gene YMR203W | yeast gene YPL040C
2.0: yeast gene YBR122C
1.1: yeast gene YBR003W | yeast gene YDL181W | yeast gene YDR377W | yeast gene YGL018C | yeast gene YLR295C | yeast gene YNL073W
1.0: yeast gene YAL039C | yeast gene YBL022C | yeast gene YBR091C | yeast gene YDL198C | yeast gene YDR298C | yeast gene YGL191W | yeast gene YGR174C | yeast gene YJR045C | yeast gene YJR121W | yeast gene YLR038C | yeast gene YOR142W
